PubChem BioAssay AID588569 (Sanford-Burnham Center for Chemical Genomics, 2011)
The source made the active and inactive calls.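 Rule for the calls: active = mean IC50 of 20 µM or lower in the 6 hour cytotoxicity test; inactive = the rest.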

Tested on: CHO-XBP1 cytotoxicity, ATPlite luminescence, 6 h
Test: cytotoxicity in CHO-XBP1 reporter cells, SAR follow-up, cytotoxicity control for UPR adaptive arm activator project, cell-based, 6 h exposure, ATPlite luminescence (AID 588569)

| Compound | IC50 |
| --- | --- |
| O=C(Nc1ccc(Br)c(C(F)(F)F)c1)c1cc(-c2ccncc2)nc2ccccc12 | > 80 µM (inactive) |
| O=C(Nc1ccc(C(F)(F)F)cc1)c1cc(-c2ccncc2)nc2ccccc12 | 70.4 µM (inactive) |
| O=C(Nc1ccc(F)cc1)c1cc(-c2ccncc2)nc2ccccc12 | > 80 µM (inactive) |
| Cc1ccc(NC(=O)c2cc(-c3ccncc3)nc3ccccc23)cc1 | > 80 µM (inactive) |
| O=C(Nc1ccc(Cl)cc1)c1cc(-c2ccncc2)nc2ccccc12 | 75.4 µM (inactive) |
| Cc1cc(Br)cc(NC(=O)c2cc(-c3ccncc3)nc3ccccc23)c1 | > 80 µM (inactive) |
| Cc1nc(Nc2nc(-c3ccccc3)cc(=O)[nH]2)nc2ccccc12 | 36.4 µM (inactive) |
